Data from PubChem BioAssay (NCI).
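Where inhibition never reached the appropriate level, the endpoint shown equals the highest concentration tested. Otherwise, values were interpolated linearly from a five-concentration, 48-hour dose response in 96-well plates. Abbreviation: GI50, concentration required for 50% inhibition of growth. TGI marks complete inhibition of growth.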

Tests used:
Experiment in all cases: inhibition of tumour cell growth, NCI panel, 48 h
SNB-75 CNS = system: SNB-75 CNS
SF-539 CNS = system: SF-539 CNS
NCI/ADR-RES ovarian = system: NCI/ADR-RES ovarian
DU-145 prostate = system: DU-145 prostate
SF-268 CNS = system: SF-268 CNS
UO-31 renal = system: UO-31 renal
OVCAR-4 ovarian = system: OVCAR-4 ovarian
LOX IMVI melanoma = system: LOX IMVI melanoma
A549 NSCLC = system: A549 NSCLC
T-47D breast = system: T-47D breast

SMILES | TGI (SNB-75 CNS) [µM] | TGI (SF-539 CNS) [µM] | TGI (NCI/ADR-RES ovarian) [µM] | TGI (DU-145 prostate) [µM] | TGI (SF-268 CNS) [µM] | TGI (UO-31 renal) [µM] | TGI (OVCAR-4 ovarian) [µM] | TGI (LOX IMVI melanoma) [µM] | TGI (A549 NSCLC) [µM] | GI50 (SF-539 CNS) [µM] | GI50 (NCI/ADR-RES ovarian) [µM] | GI50 (DU-145 prostate) [µM] | GI50 (SF-268 CNS) [µM] | GI50 (UO-31 renal) [µM] | GI50 (OVCAR-4 ovarian) [µM] | GI50 (LOX IMVI melanoma) [µM] | GI50 (A549 NSCLC) [µM] | GI50 (SNB-75 CNS) [µM] | GI50 (T-47D breast) [µM] | TGI (T-47D breast) [µM]
O=C1NC(=O)C(CC2CCCCCCCCCCC2=O)C(=O)N1 (centres undefined) | > 100 | > 100 | > 100 | > 100 | > 100 | > 100 | > 100 | > 100 | > 100 |  |  |  |  |  |  |  |  |  |  | 
O=C1CSC(c2ccc(Cl)cc2Cl)N1c1ccc(F)cc1 (centres undefined) |  | 33.4 | 35.5 | 29.6 | 32.2 | 31.5 | 31.9 | 34 | 36.1 | 19.2 | 18.8 | 16.1 | 16.9 | 16.6 | 16.8 | 18.2 | 19.1 |  |  | 
CC(=O)C(=CN1CCN(C(=O)c2ccco2)C1=S)C(C)=O | 71.4 |  | 56.6 |  | 6.72 | 10.8 | 32.7 | 4.62 | 32.7 |  | 23.2 |  | 2.57 | 2.92 | 10.6 | 2.12 | 11.2 | 9.02 | 3.65 | 12.6
C/C(CC(=O)NCCc1ccccc1)=N\NC(=O)C[n+]1ccccc1 | > 100 | > 100 |  |  | > 100 | > 100 |  | > 100 | > 100 |  |  |  |  |  |  |  |  |  |  | 
O=c1c2cc(Br)cc(Br)c2nc(CCCl)n1CCO | 93.5 | > 100 |  |  | > 100 | > 100 | > 100 | > 100 | > 100 |  |  |  |  |  |  |  |  |  |  | 
C=C1C(=O)OC2/C=C(\COC(C)=O)CCC(OC(C)=O)C3=CC(OC3=O)C12 (centres undefined) | 35.6 | 16.4 |  | > 100 | 50 | 35.5 | 52 | 19 | 43 |  |  |  |  |  |  |  |  |  |  | 53.4
C1C[OH+]CC[OH+]CC[OH+]CC[OH+]CC[OH+]1.[Cl-].[V] | 41.2 | 31.6 |  |  | > 100 | > 100 | 41.6 | > 100 | > 100 | 16.5 |  |  | 73.2 | 86.3 | 6.03 | 30.6 | 61.1 | 16.2 |  | 
CC(CO)(CO)NCCCCn1ccc2c1C(=O)c1c(c(O)c3ccccc3c1O)C2=O |  | 47.1 | 6.02 | 30.5 | 40.9 | > 100 |  |  |  | 15.3 | 2.36 | 16.1 | 14.4 | 4.18 |  |  |  |  | 21.1 | 65.8
COc1ccc(OC)c2c(C(=O)O)c(Cc3ccccc3)ccc12 | > 100 |  |  |  | > 100 | > 100 | > 100 | > 100 | > 100 |  |  |  |  |  |  |  |  |  |  | 
S=C1OC2CCCC[C@H]2O1 (some centres undefined) | > 100 | > 100 |  |  | > 100 | > 100 | > 100 | > 100 | > 100 |  |  |  |  |  |  |  |  |  |  | 
O=C1CSC(/C(=N/Nc2ccccc2)c2nc3ccccc3[nH]2)=N1 | 97.6 | 85.2 |  |  | > 100 | > 100 | > 100 | > 100 | > 100 |  |  |  |  |  |  |  |  |  |  | 
c1ccc(C2Nc3ccccc3C3OCCCC23)cc1 (centres undefined) |  | 31.5 |  |  | > 100 | > 100 | > 100 | 35.3 | > 100 |  |  |  |  |  |  |  |  |  |  | 
CC(C)C[C@H](NC(=O)/C=C/Cn1ccc2ccccc2c1=O)B(O)O | 16.3 | 6.45 | > 100 | > 100 | 51.5 | > 100 |  | 10.7 | > 100 | 2.16 | 90.8 | 8.78 | 4.98 | 9.45 |  | 2.88 | 5.35 | 3.2 | 2.68 | 15.3
CSC(C1c2ccccc2N(c2ccc(C)cc2)c2[nH]c(=O)n(C)c(=O)c21)S(=O)(=O)c1ccc(C)cc1 (centres undefined) | > 100 | > 100 |  |  | > 100 | > 100 | > 100 | > 100 | > 100 |  |  |  |  |  |  |  |  |  |  | 
CCCCCCCCCCCC(=O)OCC1OC(OC)C(NC(=O)N(CCCl)N=O)C(O)C1O (centres undefined) | 52.8 | 14.8 |  |  | 16.4 | 33.5 | 37.6 | 21.6 | 36.8 |  |  |  |  |  |  |  |  |  |  | 
COc1cc(NC(C)CCCN)c2nccc(C)c2c1 (centres undefined) | 37.1 | 35.3 | > 100 | > 100 | > 100 | 53.8 | 59.9 |  | > 100 |  |  |  |  |  |  |  |  |  |  | 
CN(CCC#N)c1ccc(/C=C(\C#N)c2ccc(Br)cc2)cc1 |  |  |  | > 100 | > 100 | > 100 | > 100 |  |  |  |  | > 100 | > 100 | > 100 | > 100 |  |  |  |  | 
CC1=C(C(=O)Nc2ccc(F)c(Cl)c2)C(c2cccc(O)c2)NC(=O)N1 (centres undefined) | 68.3 | > 100 | > 100 | > 100 | > 100 | > 100 |  | > 100 | > 100 | > 100 | > 100 | > 100 | 98 | 71.4 |  | > 100 | > 100 | 17.8 | > 100 | > 100
COc1ccc2nc(NC(=O)C(=O)C(C#N)c3ccc([N+](=O)[O-])cc3)sc2c1 (centres undefined) | > 100 | > 100 |  |  | > 100 | > 100 | > 100 | > 100 | > 100 |  |  |  |  |  |  |  |  |  |  | 
O=C1OC2CCCC[C@@H]2C2C[C@]34CCCCC3[C@@H](C(=O)O4)C12 (some centres undefined) | > 100 | > 100 |  |  | > 100 | > 100 | > 100 | > 100 | > 100 |  |  |  |  |  |  |  |  |  |  | 
COc1c(CCl)cc(-c2cc(=O)c3ccccc3s2)cc1CCl | 24.9 | > 42.3 | > 100 | > 100 | > 100 | 3.84 | 16.4 |  | > 100 |  |  |  |  |  |  |  |  |  |  | 4.03
